Data published in the supplement of paper PMC12317010.
Where a name gives a salt, the structure may show the parent alone.

Assay: collision cross section in nitrogen (drift tube, single-field); higher = larger gas-phase ion size
[1] = ion type: [M+H], ion source: ESI, ion mode: Positive
[2] = ion type: [M-H], ion source: ESI, ion mode: Negative
[3] = ion type: [M+H], ion source: APCI, ion mode: Positive
[4] = ion type: [M+], ion source: APCI, ion mode: Positive
[5] = ion type: [M+Na], ion source: ESI, ion mode: Positive
[6] = ion source: APCI, ion mode: Positive, ion type: [M]+ (permanent cation)
[7] = ion source: ESI, ion mode: Positive, ion type: [M]+ (permanent cation)
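Also: chemical standards at 10 µM analysed by drift tube IMS-QTOF MS in about 3.95 torr nitrogen, mean of duplicate injections differing ≤1%, mass error below 10 ppm.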

| Compound | collision cross section in nitrogen [1] [Å²] | collision cross section in nitrogen [2] [Å²] | collision cross section in nitrogen [3] [Å²] | collision cross section in nitrogen [5] [Å²] | further results |
| --- | --- | --- | --- | --- | --- |
| Nc1ccc(N=Nc2ccccc2)cc1 [C.I. Solvent Yellow 1] | 146.9 | 145.4 | 146.1 |  |  |
| COc1ccc2sc(C(=O)Nc3nnn[nH]3)c(OC(C)C)c2c1 [CI-959] |  | 178.6 |  | 190.1 |  |
| Cc1cc2c3c(c1)C(c1ccccc1)=N[C@@H](NC(=O)c1ccncc1)C(=O)N3CC2 [CI-1018] | 200.9 | 195 | 201.9 | 210.1 |  |
| COCCOC[C@H](CC1(C(=O)N[C@H]2CC[C@@H](C(=O)O)CC2)CCCC1)C(=O)Oc1ccc2c(c1)CCC2 [Candoxatril] | 224.4 | 226.4 | 224.2 | 222.5 |  |
| COc1cc(CNC(=O)CCCC/C=C/C(C)C)ccc1O [Capsaicin] | 182 | 177.8 |  | 173 |  |
| COC(=O)Nc1nc2ccccc2[nH]1 [Carbendazim] | 139 |  | 138.7 |  |  |
| CCOC(=O)n1ccn(C)c1=S [Carbimazole] |  |  |  | 148 |  |
| CNC(=O)Oc1cccc2c1OC(C)(C)C2 [Carbofuran] |  |  |  | 157.8 |  |
| N#CC(C#N)=NNc1cccc(Cl)c1 [Carbonyl cyanide chlorophenylhydrazone] | 142.8 |  |  |  |  |
| CCCCN(CCCC)SN(C)C(=O)Oc1cccc2c1OC(C)(C)C2 [Carbosulfan] | 188.3 |  | 188.3 | 204.7 |  |
| CC1=C(C(=O)Nc2ccccc2)SCCO1 [Carboxin] | 153 | 155.8 | 151.4 | 165.7 |  |
| CCCCNC(=O)NS(=O)(=O)c1ccc(N)cc1 [Carbutamide] |  | 165 |  | 175.6 |  |
| CCOC(=O)C(Cl)Cc1cc(-n2nc(C)n(C(F)F)c2=O)c(F)cc1Cl (stereo unspecified) [Carfentrazone-ethyl] | 180.3 |  |  | 187.9 |  |
| CC(C)c1ccc(C(=O)N=C(N)N)cc1S(C)(=O)=O [Cariporide mesylate] | 173.6 | 169.3 | 175.1 | 178.2 |  |
| CCCC(C)(COC(N)=O)COC(=O)NC(C)C (stereo unspecified) [Carisoprodol] |  |  |  | 172.2 |  |
| CC1C(C)(C)C2=C(C(=O)CCC2)C1(C)C (stereo unspecified) [Cashmeran] |  | 154.6 |  |  |  |
| CCCCCCCCCCCCCCCC[n+]1ccccc1 [Cetylpyridinium bromide] |  |  |  |  | collision cross section in nitrogen [6]: 193.4 Å²; collision cross section in nitrogen [7]: 194.3 Å² |
| CCCCCCCCCCCCCCCC[n+]1ccccc1 [Cetylpyridinium chloride] |  |  |  |  | collision cross section in nitrogen [6]: 193.3 Å²; collision cross section in nitrogen [7]: 193.7 Å² |
| C=C(C)C(=O)Nc1ccc(Cl)c(Cl)c1 [Chloranocryl] |  | 145.8 |  |  |  |
| CON(C)C(=O)Nc1ccc(Br)c(Cl)c1 [Chlorbromuron] |  | 152.8 |  |  |  |
| Cc1cc(Cl)ccc1N=CN(C)C [Chlordimeform hydrochloride] |  |  | 146.2 |  |  |
| Cc1cc(Cl)ccc1N=CN(C)C [Chlordimeform] | 146.4 |  | 145.6 |  |  |
| O=C(O)C1C(C(=O)O)C2(Cl)C(Cl)=C(Cl)C1(Cl)C2(Cl)Cl (stereo unspecified) [Chlorendic acid] |  | 159 |  |  |  |
| CCOP(=O)(OCC)OC(=CCl)c1ccc(Cl)cc1Cl [Chlorfenvinphos] | 170.1 |  | 168.7 | 181 |  |
| O=C(NC(=O)c1c(F)cccc1F)Nc1cc(Cl)c(Oc2ncc(C(F)(F)F)cc2Cl)c(Cl)c1 [Chlorfluazuron] | 221.8 | 224.4 |  | 225.6 |  |
| N=C(NCCCCCCNC(=N)NC(=N)Nc1ccc(Cl)cc1)NC(=N)Nc1ccc(Cl)cc1 [Chlorhexidine diacetate] | 224.1 | 233.6 | 222.8 | 228.3 |  |
| N=C(NCCCCCCNC(=N)NC(=N)Nc1ccc(Cl)cc1)NC(=N)Nc1ccc(Cl)cc1 [Chlorhexidine dihydrochloride] | 222.9 | 233.2 | 222.7 | 227.5 |  |
| Nc1cnn(-c2ccccc2)c(=O)c1Cl [Chloridazon] | 144 | 143.7 | 143.6 | 158 |  |
| CN1C(=O)CCS(=O)(=O)C1c1ccc(Cl)cc1 (stereo unspecified) [Chlormezanone] |  | 154.1 |  |  |  |
| O=C1c2ccccc2C(=O)C1C(=O)C(c1ccccc1)c1ccc(Cl)cc1 (stereo unspecified) [Chlorophacinone] |  | 193.2 |  |  |  |

Further lines, with some results ahead:

| collision cross section in nitrogen [1] [Å²] | collision cross section in nitrogen [2] [Å²] | collision cross section in nitrogen [3] [Å²] | collision cross section in nitrogen [5] [Å²] | Compound | further results |
| --- | --- | --- | --- | --- | --- |
| 307.5 | 282.8 |  |  | O=S(=O)(O)c1cc(Nc2nc(Nc3ccccc3)nc(N(CCO)CCO)n2)ccc1C=Cc1ccc(Nc2nc(Nc3ccccc3)nc(N(CCO)CCO)n2)cc1S(=O)(=O)O [C.I. Fluorescent Brightener 28, disodium salt] |  |
|  | 231.8 |  |  | CC(=O)Nc1ccc(N=Nc2c(S(=O)(=O)O)cc3cc(S(=O)(=O)O)cc(NC(C)=O)c3c2O)cc1 [C.I. Food Red 11] |  |
|  | 207 |  |  | Cc1ccc([N+](=O)[O-])cc1N=Nc1c(O)c(C(=O)Nc2ccccc2)cc2ccccc12 [C.I. Pigment Red 22] |  |
|  | 187.2 |  |  | Cc1cc(N=Nc2c(O)ccc3ccccc23)c(S(=O)(=O)O)cc1Cl [C.I. Pigment Red 53] |  |
|  | 185.7 | 183.4 |  | Cc1ccc2[nH]c3cc4c(=O)c5cc(C)ccc5[nH]c4cc3c(=O)c2c1 [C.I. Pigment Red 122] |  |
|  |  | 238.9 |  | CC(=O)C(=NNc1ccc(-c2ccc(NN=C(C(C)=O)C(=O)Nc3ccc(C)cc3C)c(Cl)c2)cc1Cl)C(=O)Nc1ccc(C)cc1C [C.I. Pigment Yellow 13] | collision cross section in nitrogen [4]: 238.3 Å² |
| 166.8 |  | 163.6 |  | Cc1ccc(N=Nc2c(O)ccc3ccccc23)c(C)c1 [C.I. Solvent Orange 7] |  |
| 218.5 |  | 217.9 | 230.2 | CCN(CC)c1ccc2c(c1)Oc1cc(N(CC)CC)ccc1C21OC(=O)c2ccccc21 [C.I. Solvent Red 49] |  |
| 185 | 190.5 | 186.2 | 205.5 | O=C1OC2(c3ccccc31)c1ccc(O)c(Br)c1Oc1c2ccc(O)c1Br [C.I. Solvent Red 72] |  |
| 171.6 | 177.5 | 171.6 |  | COc1ccc(OC)c(N=Nc2c(O)ccc3ccccc23)c1 [C.I. Solvent Red 80] |  |
| 211.3 | 218.2 | 211.8 |  | O=C1OC2(c3ccccc31)c1cc(I)c(O)c(I)c1Oc1c2cc(I)c(O)c1I [C.I. Solvent Red 140] |  |
|  | 160.1 | 156.9 |  | Oc1ccc2ccccc2c1N=Nc1ccccc1 [C.I. Solvent Yellow 14] |  |
| 165.9 |  | 165.9 |  | CCN(CC)c1ccc(N=Nc2ccccc2)cc1 [C.I. Solvent Yellow 56] |  |
|  | 214.2 |  | 210.5 | Cc1cc(SC2=C(O)C[C@@](CCc3ccc(N)cc3)(C(C)C)OC2=O)c(C(C)(C)C)cc1CO [CI-1029] |  |
| 200.2 | 199 | 200.6 |  | Clc1ccc(-c2nc3sccn3c2/C=N/OCc2ccc(Cl)c(Cl)c2)cc1 [CITCO] |  |
|  | 130.5 |  |  | O=C1NS(=O)(=O)c2ccccc21 [Calcium saccharin hydrate] |  |
| 242.2 | 244 | 241.9 | 252.1 | CCOc1nc2cccc(C(=O)OC(C)OC(=O)OC3CCCCC3)c2n1Cc1ccc(-c2ccccc2-c2nnn[nH]2)cc1 (stereo unspecified) [Candesartan cilexetil] |  |
| 183.9 | 186 | 184.1 | 194.4 | CC(=O)c1ccc2c(c1)[C@H](NC(=O)c1ccc(F)cc1)[C@@H](O)C(C)(C)O2 [Carabersat] |  |
| 150.1 |  | 150.5 | 161.1 | NC(=O)N1c2ccccc2C=Cc2ccccc21 [Carbamazepine] |  |
|  | 132.9 |  |  | c1ccc2c(c1)[nH]c1ccccc12 [Carbazole] | collision cross section in nitrogen [4]: 130.2 Å² |
|  |  |  | 167.4 | CCNC(=O)[C@@H](C)OC(=O)Nc1ccccc1 [Carbetamide] |  |
| 209.1 | 208.9 |  | 217.8 | Cc1c(C(=O)O)c(O)cc2c1C(=O)c1c(O)c([C@@H]3O[C@H](CO)[C@@H](O)[C@H](O)[C@H]3O)c(O)c(O)c1C2=O [Carminic acid] |  |
| 187.3 | 190.8 |  |  | Cc1ccc(-c2cc(C(F)(F)F)nn2-c2ccc(S(N)(=O)=O)cc2)cc1 [Celecoxib] |  |
| 200.3 | 195 | 200 | 195.6 | O=C(O)COCCN1CCN(C(c2ccccc2)c2ccc(Cl)cc2)CC1 (stereo unspecified) [Cetirizine hydrochloride (1:2)] |  |
| 222.4 |  | 222.9 | 226.5 | N=C(NCCCCCCNC(=N)NC(=N)Nc1ccc(Cl)cc1)NC(=N)Nc1ccc(Cl)cc1 [Chlorhexidine] |  |
| 174.9 |  | 175.3 | 183.1 | CN(C)C(=O)Nc1ccc(Oc2ccc(Cl)cc2)cc1 [Chloroxuron] |  |
